How the values were obtained:
[1] = biological target: Phospholipase A2 group IB, pancreatic (Homo sapiens) (UniProt P04054); assay: Inhibitory activity against human pancreatic Phospholipase A2
[2] = biological target: Phospholipase A2, pancreatic group IB (Sus scrofa); assay: Inhibitory activity against porcine pancreatic Phospholipase A2

Sequence of Phospholipase A2 group IB, pancreatic (Homo sapiens) (P04054 whole entry, looked up): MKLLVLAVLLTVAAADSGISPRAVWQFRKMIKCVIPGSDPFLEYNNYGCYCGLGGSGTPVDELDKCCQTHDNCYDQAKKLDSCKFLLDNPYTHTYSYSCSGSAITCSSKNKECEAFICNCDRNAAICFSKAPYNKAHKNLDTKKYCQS

SMILES | IC50 [1] [µM] | IC50 [2] [µM]
NC(=O)Cc1c(Br)n(Cc2ccccc2)c2ccc(OCCCC(=O)O)cc12 [4-(1-Benzyl-2-bromo-3-carbamoylmethyl-1H-indol-5-yloxy)-butyric acid] | 15.9 | –
Cc1c(CC(N)=O)c2c(OCC(=O)O)cccc2n1Cc1cccc(Cl)c1 [Sodium; [3-carbamoylmethyl-1-(3-chloro-benzyl)-2-methyl-1H-indol-4-yloxy]-acetate] | 1.2 | 0.02
Cc1c(CC(N)=O)c2cc(OCc3ccccc3C(=O)O)ccc2n1Cc1ccccc1 [2-(1-Benzyl-3-carbamoylmethyl-2-methyl-1H-indol-5-yloxymethyl)-benzoic acid] | 22.5 | 7.5
Cc1c(CC(N)=O)c2c(OCC(=O)O)cccc2n1Cc1ccccc1-c1ccccc1 [Sodium; (1-biphenyl-2-ylmethyl-3-carbamoylmethyl-2-methyl-1H-indol-4-yloxy)-acetate] | 4.09 | 0.014
NC(=O)Cc1c(Br)n(Cc2ccccc2)c2ccc(OCCCP(=O)(O)O)cc12 [[3-(1-Benzyl-2-bromo-3-carbamoylmethyl-1H-indol-5-yloxy)-propyl]-phosphonic acid] | 6.2 | 2.2

From BindingDB's records for doi:10.1021/jm960486n (Eli Lilly, 1997)
